US8822503B2, “2-pyridone compounds” (Taisho Pharmaceutical Co., Ltd, priority 2009, dated 2014)

Each molecule was assayed against T1, human liver GK (Homo sapiens, UniProt P35557) (assay: GK activation test). Conditions: test compound concentration needed to activate 50% of maximum activation ability; 4 mM 14C-labeled glucose, 2 mM ATP, room temperature, 20 minutes.
T1 construct: GST (glutathione S-transferase) (N); made in house; host or cells: E. coli
T1 sequence (P35557 1-466 isoform P35557-2): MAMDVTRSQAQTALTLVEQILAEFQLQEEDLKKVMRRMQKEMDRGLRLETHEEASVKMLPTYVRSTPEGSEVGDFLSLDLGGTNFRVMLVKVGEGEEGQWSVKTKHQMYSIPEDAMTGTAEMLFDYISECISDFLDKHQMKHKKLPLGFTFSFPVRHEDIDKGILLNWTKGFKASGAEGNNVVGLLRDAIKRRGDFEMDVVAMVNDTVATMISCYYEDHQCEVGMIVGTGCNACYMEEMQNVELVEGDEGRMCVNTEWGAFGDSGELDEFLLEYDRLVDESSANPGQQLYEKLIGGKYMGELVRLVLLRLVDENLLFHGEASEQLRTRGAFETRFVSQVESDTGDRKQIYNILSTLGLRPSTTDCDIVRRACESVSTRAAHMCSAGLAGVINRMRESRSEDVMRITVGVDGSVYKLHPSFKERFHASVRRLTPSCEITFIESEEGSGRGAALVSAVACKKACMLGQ
Format: biochemical
Outline: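 GST-tagged human liver GK from E. coli (0.24 μg/well) with 4 mM 14C-glucose, 2 mM ATP in Hepes-KOH pH 7.1, KCl, MgCl2, DTT, 1% DMSO, 20 min room temperature. Labeled glucose 6-phosphate captured on anion resin, eluted and counted. EC50 = concentration giving half of maximal activation.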

| SMILES | EC50 [nM] |
| --- | --- |
| Cc1ccc(/C(=C\[C@H]2CCC(=O)N2)c2ccc(C3CC3)c(=O)[nH]2)c(F)c1 [Example 4-102, 3-Cyclopropyl-6-{(E)-1-(2-fluoro-4-methylphenyl)-2-[(2R)-5-oxopyrrolidin-2-yl]ethenyl}pyridin-2(1H)-one] | 10 to 500 |
| O=C1CC[C@H](/C=C(\c2ccc(C(F)(F)F)c(Cl)c2)c2ccc(C3CC3)c(=O)[nH]2)N1 [Example 4-103, 6-{(E)-1-[3-Chloro-4-(trifluoromethyl)phenyl]-2-[(2R)-5-oxopyrrolidin-2-yl]ethenyl}-3-cyclopropylpyridin-2(1H)-one] | 10 to 500 |
| O=C1CC[C@H](/C=C(\c2ccc(C(F)(F)F)nc2)c2ccc(C3CC3)c(=O)[nH]2)N1 [Example 4-108, 3-Cyclopropyl-6-{(E)-2-[(2R)-5-oxopyrrolidin-2-yl]-1-[6-(trifluoromethyl)pyridin-3-yl]ethenyl}pyridin-2(1H)-one] | 500 to 3000 |
| Cc1ccc(/C(=C\[C@H]2CCC(=O)N2)c2ccc(C3CC3)c(=O)[nH]2)c(Cl)c1 [Example 4-109, 6-{(E)-1-(2-Chloro-4-methylphenyl)-2-[(2R)-5-oxopyrrolidin-2-yl]ethenyl}-3-cyclopropylpyridin-2(1H)-one] | 500 to 3000 |
| O=C1CC[C@H](/C=C(/c2ccc(C3CC3)c(=O)[nH]2)c2ccc(Cl)cc2C(F)(F)F)N1 [Example 4-110, 6-{(E)-1-[4-Chloro-2-(trifluoromethyl)phenyl]-2-[(2R)-5-oxopyrrolidin-2-yl]ethenyl}-3-cyclopropylpyridin-2(1H)-one] | 500 to 3000 |
| O=C1CC[C@H](/C=C(\c2ccc(F)c(F)c2)c2ccc(C3CC3)c(=O)[nH]2)N1 [Example 4-112, 3-Cyclopropyl-6-{(E)-1-(3,4-difluorophenyl)-2-[(2R)-5-oxopyrrolidin-2-yl]ethenyl}pyridin-2(1H)-one] | 500 to 3000 |
| O=C1CC[C@H](/C=C(\c2ccc(C(F)(F)F)c(F)c2)c2ccc(C3CC3)c(=O)[nH]2)N1 [Example 4-116, 3-Cyclopropyl-6-{(E)-1-[3-fluoro-4-(trifluoromethyl)phenyl]-2-[(2R)-5-oxopyrrolidin-2-yl]ethenyl}pyridin-2(1H)-one] | 10 to 500 |
| O=C1CC[C@H](/C=C(\c2ccc(F)c(C(F)(F)F)c2)c2ccc(C3CC3)c(=O)[nH]2)N1 [Example 4-117, 3-Cyclopropyl-6-{(E)-1-[4-fluoro-3-(trifluoromethyl)phenyl]-2-[(2R)-5-oxopyrrolidin-2-yl]ethenyl}pyridin-2(1H)-one] | 500 to 3000 |
| O=C1CC[C@H](/C=C(/c2ccc(C3CC3)c(=O)[nH]2)c2ccc(C(F)(F)F)cc2C(F)(F)F)N1 [Example 4-118, 6-{(E)-1-[2,4-Bis(trifluoromethyl)phenyl]-2-[(2R)-5-oxopyrrolidin-2-yl]ethenyl}-3-cyclopropylpyridin-2(1H)-one] | 3000 to 10000 |
| O=C1CC[C@H](/C=C(\c2cc(C(F)(F)F)cc(C(F)(F)F)c2)c2ccc(C3CC3)c(=O)[nH]2)N1 [Example 4-119, 6-{(E)-1-[3,5-Bis(trifluoromethyl)phenyl]-2-[(2R)-5-oxopyrrolidin-2-yl]ethenyl}-3-cyclopropylpyridin-2(1H)-one] | 500 to 3000 |
| O=C1CC[C@H](/C=C(\c2ccc(F)nc2)c2ccc(C3CC3)c(=O)[nH]2)N1 [Example 4-121, 3-Cyclopropyl-6-{(E)-1-(6-fluoropyridin-3-yl)-2-[(2R)-5-oxopyrrolidin-2-yl]ethenyl}pyridin-2(1H)-one] | 3000 to 10000 |
| O=C1CC[C@H](/C=C(/c2ccc(C3CC3)c(=O)[nH]2)c2ccc(F)cc2O)N1 [Example 4-122, 3-Cyclopropyl-6-{(E)-1-(4-fluoro-2-hydroxyphenyl)-2-[(2R)-5-oxopyrrolidin-2-yl]ethenyl}pyridin-2(1H)-one] | 10 to 500 |
| O=C1CC[C@H](/C=C(\c2ccc3c(c2)CCO3)c2ccc(C3CC3)c(=O)[nH]2)N1 [Example 4-123, 3-Cyclopropyl-6-{(E)-1-(2,3-dihydro-1-benzofuran-5-yl)-2-[(2R)-5-oxopyrrolidin-2-yl]ethenyl}pyridin-2(1H)-one] | 10 to 500 |
| O=C1CC[C@H](/C=C(\c2ccc(OC(F)(F)F)cc2)c2ccc(C3CC3)c(=O)[nH]2)N1 [Example 4-126, 3-Cyclopropyl-6-{(E)-2-[(2R)-5-oxopyrrolidin-2-yl]-1-[4-(trifluoromethoxy)phenyl]ethenyl}pyridin-2(1H)-one] | 10 to 500 |
| O=C1CC[C@H](/C=C(\c2ccc(OC(F)F)cc2)c2ccc(C3CC3)c(=O)[nH]2)N1 [Example 4-127, 3-Cyclopropyl-6-{(E)-1-[4-(difluoromethoxy)phenyl]-2-[(2R)-5-oxopyrrolidin-2-yl]ethenyl}pyridin-2(1H)-one] | 10 to 500 |
| O=C1CC[C@H](/C=C(\c2ccc(OC(F)(F)F)c(Cl)c2)c2ccc(C3CC3)c(=O)[nH]2)N1 [Example 4-128, 6-{(E)-1-[3-Chloro-4-(trifluoromethoxy)phenyl]-2-[(2R)-5-oxopyrrolidin-2-yl]ethenyl}-3-cyclopropylpyridin-2(1H)-one] | 10 to 500 |

Continued, values first:

| EC50 [nM] | SMILES |
| --- | --- |
| 10 to 500 | O=C1CC[C@H](/C=C(\c2ccc(Cl)c(Cl)c2)c2ccc(C3CC3)c(=O)[nH]2)N1 [Example 4-101, 3-Cyclopropyl-6-{(E)-1-(3,4-dichlorophenyl)-2-[(2R)-5-oxopyrrolidin-2-yl]ethenyl}pyridin-2(1H)-one] |
| 500 to 3000 | O=C1CC[C@H](/C=C(\c2ccc(F)c(Cl)c2)c2ccc(C3CC3)c(=O)[nH]2)N1 [Example 4-104, 6-{(E)-1-(3-Chloro-4-fluorophenyl)-2-[(2R)-5-oxopyrrolidin-2-yl]ethenyl}-3-cyclopropylpyridin-2(1H)-one] |
| 10 to 500 | O=C1CC[C@H](/C=C(\c2ccc(Cl)c(C(F)(F)F)c2)c2ccc(C3CC3)c(=O)[nH]2)N1 [Example 4-105, 6-{(E)-1-[4-Chloro-3-(trifluoromethyl)phenyl]-2-[(2R)-5-oxopyrrolidin-2-yl]ethenyl}-3-cyclopropylpyridin-2(1H)-one] |
| 10 to 500 | Cc1ccc(/C(=C\[C@H]2CCC(=O)N2)c2ccc(C3CC3)c(=O)[nH]2)cc1Cl [Example 4-106, 6-{(E)-1-(3-Chloro-4-methylphenyl)-2-[(2R)-5-oxopyrrolidin-2-yl]ethenyl}-3-cyclopropylpyridin-2(1H)-one] |
| 10 to 500 | Cc1cc(/C(=C\[C@H]2CCC(=O)N2)c2ccc(C3CC3)c(=O)[nH]2)ccc1Cl [Example 4-107, 6-{(E)-1-(4-Chloro-3-methylphenyl)-2-[(2R)-5-oxopyrrolidin-2-yl]ethenyl}-3-cyclopropylpyridin-2(1H)-one] |
| 10 to 500 | O=C1CC[C@H](/C=C(\c2ccc(Cl)c(F)c2)c2ccc(C3CC3)c(=O)[nH]2)N1 [Example 4-111, 6-{(E)-1-(4-Chloro-3-fluorophenyl)-2-[(2R)-5-oxopyrrolidin-2-yl]ethenyl}-3-cyclopropylpyridin-2(1H)-one] |
| 500 to 3000 | Cc1cc(/C(=C\[C@H]2CCC(=O)N2)c2ccc(C3CC3)c(=O)[nH]2)ccc1F [Example 4-113, 3-Cyclopropyl-6-{(E)-1-(4-fluoro-3-methylphenyl)-2-[(2R)-5-oxopyrrolidin-2-yl]ethenyl}pyridin-2(1H)-one] |
| 10 to 500 | Cc1ccc(/C(=C\[C@H]2CCC(=O)N2)c2ccc(C3CC3)c(=O)[nH]2)cc1F [Example 4-114, 3-Cyclopropyl-6-{(E)-1-(3-fluoro-4-methylphenyl)-2-[(2R)-5-oxopyrrolidin-2-yl]ethenyl}pyridin-2(1H)-one] |
| 10 to 500 | Cc1ccc(/C(=C\[C@H]2CCC(=O)N2)c2ccc(C3CC3)c(=O)[nH]2)cc1C [Example 4-115, 3-Cyclopropyl-6-{(E)-1-(3,4-dimethylphenyl)-2-[(2R)-5-oxopyrrolidin-2-yl]ethenyl}pyridin-2(1H)-one] |
| 500 to 3000 | O=C1CC[C@H](/C=C(\c2ccc(Cl)nc2)c2ccc(C3CC3)c(=O)[nH]2)N1 [Example 4-120, 6-{(E)-1-(6-Chloropyridin-3-yl)-2-[(2R)-5-oxopyrrolidin-2-yl]ethenyl}-3-cyclopropylpyridin-2(1H)-one] |
| 10 to 500 | COc1cc(/C(=C\[C@H]2CCC(=O)N2)c2ccc(C3CC3)c(=O)[nH]2)ccc1Cl [Example 4-124, 6-{(E)-1-(4-Chloro-3-methoxyphenyl)-2-[(2R)-5-oxopyrrolidin-2-yl]ethenyl}-3-cyclopropylpyridin-2(1H)-one] |
| 10 to 500 | CCc1cc(/C(=C\[C@H]2CCC(=O)N2)c2ccc(C3CC3)c(=O)[nH]2)ccc1Cl [Example 4-125, 6-{(E)-1-(4-Chloro-3-ethylphenyl)-2-[(2R)-5-oxopyrrolidin-2-yl]ethenyl}-3-cyclopropylpyridin-2(1H)-one] |
| 500 to 3000 | O=C1CC[C@H](/C=C(\c2ccc(Cl)c(OC(F)(F)F)c2)c2ccc(C3CC3)c(=O)[nH]2)N1 [Example 4-129, 6-{(E)-1-[4-Chloro-3-(trifluoromethoxy)phenyl]-2-[(2R)-5-oxopyrrolidin-2-yl]ethenyl}-3-cyclopropylpyridin-2(1H)-one] |
| 500 to 3000 | O=C1CC[C@H](/C=C(\c2ccc(Cl)c(OC(F)F)c2)c2ccc(C3CC3)c(=O)[nH]2)N1 [Example 4-130, 6-{(E)-1-[4-Chloro-3-(difluoromethoxy)phenyl]-2-[(2R)-5-oxopyrrolidin-2-yl]ethenyl}-3-cyclopropylpyridin-2(1H)-one] |
